Measurements from paper PMC8851660 (ACS Omega, 2022).
Values after ≈ are worked out from the molar mass of the structure shown.

How the values were obtained:
E. coli MDR = test: microbe, parasite or virus in culture; assay type: cell-based; settings: Escherichia coli, read-out: Gram-negative MIC E. coli MDR
S. aureus clinical = test: microbe, parasite or virus in culture; assay type: cell-based; settings: Staphylococcus aureus, read-out: Gram-positive MIC S. aureus clinical
P. aeruginosa MDR = test: microbe, parasite or virus in culture; assay type: cell-based, Pseudomonas aeruginosa; settings: for MIC: Pseudomonas aeruginosa, read-out: Gram-negative MIC P. aeruginosa MDR
E. coli (ATCC 25922) = test: microbe, parasite or virus in culture; assay type: cell-based; settings: Escherichia coli, ATCC25922, read-out: Gram-negative MIC E. coli ATCC 25922
[1] = system: P. aeruginosa (ATCC 29853); assay type: cell-based, Pseudomonas aeruginosa
C. albicans clinical = test: microbe, parasite or virus in culture; assay type: cell-based, Candida albicans; settings: for MIC: Candida albicans, read-out: fungi MIC C. albicans clinical

| SMILES | MIC (E. coli MDR) [µg/mL] | MIC (S. aureus clinical) [µg/mL] | Gram-negative MIC P. aeruginosa MDR (P. aeruginosa MDR) [µg/mL] | MIC (P. aeruginosa MDR) [µg/mL] | MIC (E. coli (ATCC 25922)) [µg/mL] | Gram-negative MIC P. aeruginosa (ATCC 29853) [1] [µg/mL] | MIC (C. albicans clinical) [µg/mL] | fungi MIC C. albicans clinical (C. albicans clinical) [µg/mL] |
| --- | --- | --- | --- | --- | --- | --- | --- | --- |
| CC1(C)S[C@@H]2[C@H](NC(=O)[C@H](N)c3ccc(O)cc3)C(=O)N2[C@H]1C(=O)O [AMOX, amoxicillin, reference compound] | 250 (≈ 684 µM) | ≤ 7.81 | >500 | > 500 | 62.5 (≈ 171 µM) | >500 | – | – |
| Cc1nc2ccccc2n(-c2ccc([N+](=O)[O-])cc2[N+](=O)[O-])c1=O [Compound 4, 1-(2,4-Dinitrophenyl)-3-methylquinoxalin-2(1H)-one] | 125 (≈ 383 µM) | 16.1 (≈ 49.4 µM) | – | 125 (≈ 383 µM) | 125 (≈ 383 µM) | – | 125 (≈ 383 µM) | – |
| O=c1c(Cc2ccccc2)nc2ccccc2n1-c1ccc([N+](=O)[O-])cc1[N+](=O)[O-] [Compound 5, 3-Benzyl-1-(2,4-dinitrophenyl)quinoxalin-2(1H)-one] | > 500 | 500 (≈ 1240 µM) | – | 125 (≈ 311 µM) | > 500 | – | > 500 | – |
| O=[N+]([O-])c1ccc(Sc2nc3ccccc3s2)c([N+](=O)[O-])c1 [Compound 6, 2-[(2,4-Dinitrophenyl)thio]benzo[d]thiazole] | > 500 | 500 (≈ 1500 µM) | – | 125 (≈ 375 µM) | 500 (≈ 1500 µM) | – | 500 (≈ 1500 µM) | – |
| Cn1ccc(=O)nc1Sc1ccc([N+](=O)[O-])cc1[N+](=O)[O-] [Compound 7, 2-[(2,4-Dinitrophenyl)thio]-1-methylpyrimidin-4(1H)-one] | 125 (≈ 405 µM) | 32.2 (≈ 105 µM) | – | 125 (≈ 405 µM) | 64.5 (≈ 209 µM) | – | 16.1 (≈ 52.3 µM) | – |
| O=[N+]([O-])c1ccc(Oc2cccc3cccnc23)c([N+](=O)[O-])c1 [Compound 8, 8-(2,4-Dinitrophenoxy)quinoline] | 125 (≈ 402 µM) | 125 (≈ 402 µM) | – | 125 (≈ 402 µM) | 125 (≈ 402 µM) | – | 125 (≈ 402 µM) | – |
| CC(C)(C)c1cccc(C(C)(C)C)c1Oc1ccc([N+](=O)[O-])cc1[N+](=O)[O-] [Compound 9, 1,3-Di-tert-butyl-2-(2,4-dinitrophenoxy)benzene] | 125 (≈ 336 µM) | 500 (≈ 1340 µM) | – | 125 (≈ 336 µM) | > 500 | – | > 500 | – |
| O=[N+]([O-])c1ccc(-n2ccnc2)c([N+](=O)[O-])c1 [Compound 11, 1-(2,4-Dinitrophenyl)-1H-imidazole] | 125 (≈ 534 µM) | 125 (≈ 534 µM) | – | 125 (≈ 534 µM) | 125 (≈ 534 µM) | – | 125 (≈ 534 µM) | – |
| C[C@@H]1[C@H](O)[C@@H](C)/C=C/C=C/CC/C=C/C=C/C=C/C=C/C(O[C@H]2O[C@H](C)[C@@H](O)[C@H](N)[C@@H]2O)CC2O[C@](O)(CC(O)C(O)CCC(O)CC(O)CC(O)CC(=O)O[C@H]1C)CC(O)C2C(=O)O (stereo partly drawn) [NYS, nystatin, reference compound] | – | – | – | – | – | – | – | <2 |
